Tests used:
[1] = tested on: ZAC/hα1-Gly; assay: TEVC in oocytes expressing ZAC/hα1-Gly chimera; assay type: cell-based, human
Procedure: (§1) The recordings were performed at room temperature.
(§2) Analysis of the data from the TEVC recordings were performed using Clampfit software version 10.5 (Molecular Devices, Crawley, UK) and GraphPad Prism version 7.0c (GraphPad Software, La Jolla, CA). Unless otherwise stated, the inward currents induced by agonists in oocytes were normalized to the maximal response elicited by a specific agonist (agonist Imax) on each oocyte. Concentration-response and concentration-inhibition curves were fitted in GraphPad Prism by nonlinear regression using the equation for sigmoidal dose-response with variable slope. Each data point represents the mean ± S.E.M. value of recordings performed on at least five oocytes in total from at least two different batches. For the data where statistical analysis was performed, a one-way ANOVA was used. The null hypothesis was rejected at P < 0.05, and the differences between the means were analyzed by Tukey’s multiple comparisons test.
(§3) Initially, we constructed four chimeric subunits fusing the ZAC ECD or TMD-ICD with the complementary domains from either the m5-HT3A or the hα1 GlyR subunit: ZAC/m5-HT3A, m5-HT3A/ZAC, ZAC/hα1-Gly and hα1-Gly/ZAC (Fig. 1A). […] (Fig. 1A).

[2] = target: T1, m5-HT3A/ZAC (Mus musculus / Homo sapiens, UniProt P23979); assay: TEVC in oocytes expressing m5-HT3A/ZAC chimera; assay type: cell-based; settings: pH 4.5; n = 4
T1 sequence (P23979 24-246): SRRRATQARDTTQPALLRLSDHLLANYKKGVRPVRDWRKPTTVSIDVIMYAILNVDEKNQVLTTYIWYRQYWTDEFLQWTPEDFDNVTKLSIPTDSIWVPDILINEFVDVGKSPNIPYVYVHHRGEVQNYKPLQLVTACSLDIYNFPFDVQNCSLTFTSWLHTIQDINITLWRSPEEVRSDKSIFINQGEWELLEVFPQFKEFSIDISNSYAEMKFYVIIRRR
T1 sequence (Q401N2 231-412 partner): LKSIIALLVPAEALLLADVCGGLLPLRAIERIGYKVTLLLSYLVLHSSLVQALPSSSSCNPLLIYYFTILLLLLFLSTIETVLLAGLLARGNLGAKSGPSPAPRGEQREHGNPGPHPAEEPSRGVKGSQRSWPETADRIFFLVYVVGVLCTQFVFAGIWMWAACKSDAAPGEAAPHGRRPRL
From the text: (§4) The construction of the ZAC-pUNIV plasmid (encoding for the human WT ZAC that contains a Thr in position 128) has been described previously. The m5-HT3A and hα1 GlyR cDNAs were subcloned from their original vectors into pUNIV (Addgene, Watertown, MA) using NheI and EcoRI as restriction enzymes. […] The C-terminus modifications in these four chimeras were introduced in their cDNAs in the same way. Point mutations were introduced in cDNAs by use of the QuikChange mutagenesis kit (Stratagene, San Diego, CA). The validity and absence of unwanted mutations in the constructed cDNAs was verified by DNA sequencing (Macrogen Europe, Amsterdam, The Netherlands).
(§5) All cDNAs used for cRNA synthesis were inserted in the pUNIV vector. The cDNAs were linearized and subsequently transcribed and capped using the mMessage mMachine T7 RNA transcription kit (Ambion, Waltham, MA). […] Oocytes were incubated in a sterile modified Barth’s solution [88 mM NaCl, 1 mM KCl, 15 mM HEPES (pH 7.5), 2.4 mM NaHCO3, 0.41 mM CaCl2, 0.82 mM MgSO4, 0.3 mM Ca(NO3)2, 100 U/ml penicillin and 100 μg/ml streptomycin] at 16–18 °C. Based on experience gained with WT ZAC in a recent study, all TEVC recordings were performed two days after cRNA injection.
(§6) On the day of the TEVC recording, all compound dilutions were prepared in a saline solution [115 mM NaCl, 2.5 mM KCl, 10 mM MOPS (pH 7.5), 1.8 mM CaCl2, 0.1 mM MgCl2], and pH was adjusted to 7.5 (if needed). Oocytes were placed in a recording chamber continuously perfused with this saline solution, and the compounds were applied in the perfusate. Both voltage and current electrodes were agar-plugged with 3 M KCl with a resistance of 0.2–2.0 MΩ. Oocytes were voltage-clamped at −50 mV (except in the studies of the chimeras and their parent receptors where they were clamped at −60 mV, section 3.1), by a Gene Clamp 500B amplifier, and current signals were digitized by a Digidata 1322A (both from Axon Instruments, Union City, CA). Currents were recorded using pCLAMP 10 (Molecular Devices, Sunnyvale, CA). The recordings were performed at room temperature.
(§7) In all recordings, compounds or compound combinations were applied in the bath until the peak current decayed to a steady state (up to 30 s). […] The antagonist properties of compounds were determined by pre-application of the compound to the perfusate for 30 s followed by co-application of the compound and the agonist. In all recordings, washes of 1–5 min were executed between the ligand applications, the length of the washes depending on the agonist concentrations used and on the return to baseline current amplitude.
as §2

[3] = tested on: ZAC/m5-HT3A-II; assay: TEVC in oocytes expressing ZAC/m5-HT3A-II chimera; assay type: cell-based, mouse/human; settings: Zn^2+ 10 mM; H^+ pH 4.0; data not shown
Procedure: as §1

[4] = tested on: hα1-Gly/ZAC; assay: TEVC in oocytes expressing hα1-Gly/ZAC chimera; assay type: cell-based, human; settings: pH 4.5; n = 5
Procedure: as §1, §2, §3

[5] = target: T2, ZAC^H210A (Homo sapiens, UniProt Q401N2, A152T/H144A); assay: TEVC in oocytes, His120 Ala mutant; assay type: cell-based; settings: pH 4.0
T2 construct: expressed in transfected cells; host or cells: Xenopus oocytes injected with cRNA (pUNIV vector)
T2 sequence (Q401N2 26-412 H144A/A152T): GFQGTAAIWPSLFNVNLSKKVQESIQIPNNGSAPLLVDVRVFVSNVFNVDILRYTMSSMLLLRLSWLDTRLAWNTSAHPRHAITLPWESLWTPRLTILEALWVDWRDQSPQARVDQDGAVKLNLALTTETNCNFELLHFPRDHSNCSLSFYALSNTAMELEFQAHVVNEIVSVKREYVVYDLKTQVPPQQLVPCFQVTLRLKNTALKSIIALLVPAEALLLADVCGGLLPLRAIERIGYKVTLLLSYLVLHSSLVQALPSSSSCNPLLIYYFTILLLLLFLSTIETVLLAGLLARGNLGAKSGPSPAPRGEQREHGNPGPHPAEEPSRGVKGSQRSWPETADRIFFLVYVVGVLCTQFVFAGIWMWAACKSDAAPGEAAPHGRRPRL
Procedure: as §1
as §2, with “For the data where statistical analysis was performed, a one-way ANOVA was used.” left out
(§8) The putative involvement of candidate residues in Clusters 1, 2, 3 and 4 in Zn^2+ binding to ZAC was investigated in by an elaborate alanine mutagenesis scanning. […] The determined IpH 4.0 value was used in part as a control and in part to enable the distinction of ZAC mutants non-responsive to Zn^2+ due to elimination of their ability to bind the metal ion from those where the mutation had eliminated cell surface expression and/or disrupted overall functionality of the receptor complex. […]

[6] = target: T3, ZAC^E136A/H139A/D143A/H144A (Homo sapiens, UniProt Q401N2, A152T/D167A/E160A/H163A/H168A); assay: TEVC in oocytes, Cluster 2 quadruple mutant; assay type: cell-based; settings: Zn^2+ 10 mM; H^+ pH 4.0; data not shown
T3 construct: expressed in transfected cells; host or cells: Xenopus oocytes injected with cRNA (pUNIV vector)
T3 sequence (Q401N2 26-412 A152T/E160A/H163A/D167A/H168A): as the sequence (Q401N2 26-412 H144A/A152T) above, with A119H, E135A, H138A, D142A, H143A counted along it
Procedure: as §1
as §2, with “For the data where statistical analysis was performed, a one-way ANOVA was used.” left out
as §8

[7] = target: T4, ZAC^D116A/DH8A/H210A (Homo sapiens, UniProt Q401N2, A152T/D140A/D142A/H144A); assay: TEVC in oocytes, Cluster 1 triple mutant; assay type: cell-based; settings: pH 4.0
T4 construct: expressed in transfected cells; host or cells: Xenopus oocytes injected with cRNA (pUNIV vector)
T4 sequence (Q401N2 26-412 D140A/D142A/H144A/A152T): as the sequence (Q401N2 26-412 H144A/A152T) above, with D115A, D117A counted along it
Procedure: as §1
as §2, with “For the data where statistical analysis was performed, a one-way ANOVA was used.” left out
as §8

[8] = target: T5, ZAC^E24A/E89A/D105A/D108A/E130A (Homo sapiens, UniProt Q401N2, A152T/D129A/D132A/E113A/E154A/E48A); assay: TEVC in oocytes, Cluster 3 quintuple mutant; assay type: cell-based; settings: H^+ pH 4.0; Zn^2+ 10 mM; data not shown
T5 construct: expressed in transfected cells; host or cells: Xenopus oocytes injected with cRNA (pUNIV vector)
T5 sequence (Q401N2 26-412 E48A/E113A/D129A/D132A/A152T/E154A): as the sequence (Q401N2 26-412 H144A/A152T) above, with E23A, E88A, D104A, D107A, A119H, E129A counted along it
Procedure: as §1
as §2, with “For the data where statistical analysis was performed, a one-way ANOVA was used.” left out
as §8

[9] = tested on: ZAC/m5-HT3A; assay: TEVC in oocytes expressing ZAC/m5-HT3A chimera; assay type: cell-based, mouse/human; settings: pH 4.5; n = 5
Procedure: as §1, §2, §3

[10] = target: T6, WT hα1 GlyR (Homo sapiens, UniProt P23415); assay type: cell-based
T6 construct: expressed in transfected cells; host or cells: Xenopus oocytes injected with cRNA (pUNIV vector)
T6 sequence (P23415 29-457): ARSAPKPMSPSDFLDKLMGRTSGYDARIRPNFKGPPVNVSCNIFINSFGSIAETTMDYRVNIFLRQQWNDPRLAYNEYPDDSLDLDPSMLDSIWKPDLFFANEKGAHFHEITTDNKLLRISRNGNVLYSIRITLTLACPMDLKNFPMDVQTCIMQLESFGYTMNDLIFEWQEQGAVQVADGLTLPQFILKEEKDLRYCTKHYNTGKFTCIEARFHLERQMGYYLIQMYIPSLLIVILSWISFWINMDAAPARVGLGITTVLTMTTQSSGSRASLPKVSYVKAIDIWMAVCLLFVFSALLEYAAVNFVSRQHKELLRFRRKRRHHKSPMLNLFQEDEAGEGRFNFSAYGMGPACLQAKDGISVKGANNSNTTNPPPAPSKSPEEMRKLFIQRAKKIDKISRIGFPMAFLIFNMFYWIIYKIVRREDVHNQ
From the text: as §4, §5, §6, §7
as §2, with “For the data where statistical analysis was performed, a one-way ANOVA was used.” left out

[11] = target: T7, WT ZAC (Homo sapiens, UniProt Q401N2, A152T); assay: TEVC in Xenopus oocytes expressing WT ZAC; assay type: cell-based; settings: PTX at concentrations up to 100 μM; Zn^2+ 1 mM
T7 construct: expressed in transfected cells; host or cells: Xenopus oocytes injected with cRNA (pUNIV vector)
T7 sequence (Q401N2 26-412 A152T): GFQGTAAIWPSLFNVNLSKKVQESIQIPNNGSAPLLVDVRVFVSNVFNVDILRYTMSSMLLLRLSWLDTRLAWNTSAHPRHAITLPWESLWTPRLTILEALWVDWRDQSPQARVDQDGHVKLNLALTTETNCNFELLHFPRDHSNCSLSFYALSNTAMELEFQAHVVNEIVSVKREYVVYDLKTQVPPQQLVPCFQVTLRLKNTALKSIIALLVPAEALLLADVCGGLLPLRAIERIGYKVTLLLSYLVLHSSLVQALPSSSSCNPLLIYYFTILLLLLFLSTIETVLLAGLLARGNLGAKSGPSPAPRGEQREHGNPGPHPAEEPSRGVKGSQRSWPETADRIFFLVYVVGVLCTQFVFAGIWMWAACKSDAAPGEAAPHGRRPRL
Procedure: as §1, §2

Compound | agonist-evoked current ([1]; pH 4.5) | IpH 4.5 ± S.E.M. [2] | agonist-evoked current [3] | IpH 4.5 ± S.E.M. [4] | IpH 4.0 [5] | agonist responsiveness [6] | IpH 4.0 range [7] | agonist responsiveness [8] | IpH 4.5 ± S.E.M. [9] | current during 30-s preincubation of antagonist ([1]; PTX preincubation) | IC50 ([1]; inhibition of Zn^2+ EC90 (10 μM)-induced currents, read-out: estimated IC50) | current during 30-s preincubation of antagonist ([10]; PTX preincubation) | IC50 ([10]; inhibition of Gly EC90 (100 μM)-elicited responses, read-out: estimated IC50) | inhibition of Zn^2+ EC90-mediated signalling [11]
[H+] [H^+] | robust currents | −0.0027 ± 0.0007 μA | did not evoke significant currents | −0.0045 ± 0.0019 μA | 30–110 nA | non-responsive | 40–100 nA | non-responsive | −0.0033 ± 0.0003 μA |  |  |  |  | 
picrotoxin [PTX] |  |  |  |  |  |  |  |  |  | substantial outward currents | > 1000 nM | no such outward currents | < 1000 nM | did not inhibit
